Numbered stars: 1 amine (or outer) side, 2 acyl side, 3 side chain; on linkers, the order of the positions; unused ones are H or OH. Bridge positions count the residues as written; N and C are the ends. Peptide text beside a SMILES is read from it. * marks the point of attachment. X1 = O=C(O)CN1CCN(CC(=O)O)CCN(CC(=O)N2CCN(Cc3cc(C[*:1])cc(C[*:2])c3)CC2)CCN(CC(=O)O)CC1; Hexanoyl = CCCCCC(=O)*
Key:
Caspase-9 = Caspase-9 (Homo sapiens, UniProt P55211); assay: biochemical; settings: read-out: Percentage inhibition (%)
Caspase-3 = molecular target: T1, Caspase-3 (Homo sapiens, UniProt P42574); assay: biochemical; settings: read-out: Percentage inhibition (%)
T1 sequence (P42574 29-175 limits assumed): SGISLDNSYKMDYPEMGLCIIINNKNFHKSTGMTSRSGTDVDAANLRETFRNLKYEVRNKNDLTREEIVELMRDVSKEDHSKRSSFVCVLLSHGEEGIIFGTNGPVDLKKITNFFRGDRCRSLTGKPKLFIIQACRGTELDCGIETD
T1 sequence (P42574 176-277 limits assumed): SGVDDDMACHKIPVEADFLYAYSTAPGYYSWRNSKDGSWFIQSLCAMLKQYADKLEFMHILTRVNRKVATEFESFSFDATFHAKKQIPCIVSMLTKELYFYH

[1] = molecular target: T2, Ubiquitin carboxyl-terminal hydrolase 8 (Homo sapiens, UniProt P40818); assay: biochemical; settings: read-out: Percentage inhibition (%)
T2 sequence (P40818 1-1118): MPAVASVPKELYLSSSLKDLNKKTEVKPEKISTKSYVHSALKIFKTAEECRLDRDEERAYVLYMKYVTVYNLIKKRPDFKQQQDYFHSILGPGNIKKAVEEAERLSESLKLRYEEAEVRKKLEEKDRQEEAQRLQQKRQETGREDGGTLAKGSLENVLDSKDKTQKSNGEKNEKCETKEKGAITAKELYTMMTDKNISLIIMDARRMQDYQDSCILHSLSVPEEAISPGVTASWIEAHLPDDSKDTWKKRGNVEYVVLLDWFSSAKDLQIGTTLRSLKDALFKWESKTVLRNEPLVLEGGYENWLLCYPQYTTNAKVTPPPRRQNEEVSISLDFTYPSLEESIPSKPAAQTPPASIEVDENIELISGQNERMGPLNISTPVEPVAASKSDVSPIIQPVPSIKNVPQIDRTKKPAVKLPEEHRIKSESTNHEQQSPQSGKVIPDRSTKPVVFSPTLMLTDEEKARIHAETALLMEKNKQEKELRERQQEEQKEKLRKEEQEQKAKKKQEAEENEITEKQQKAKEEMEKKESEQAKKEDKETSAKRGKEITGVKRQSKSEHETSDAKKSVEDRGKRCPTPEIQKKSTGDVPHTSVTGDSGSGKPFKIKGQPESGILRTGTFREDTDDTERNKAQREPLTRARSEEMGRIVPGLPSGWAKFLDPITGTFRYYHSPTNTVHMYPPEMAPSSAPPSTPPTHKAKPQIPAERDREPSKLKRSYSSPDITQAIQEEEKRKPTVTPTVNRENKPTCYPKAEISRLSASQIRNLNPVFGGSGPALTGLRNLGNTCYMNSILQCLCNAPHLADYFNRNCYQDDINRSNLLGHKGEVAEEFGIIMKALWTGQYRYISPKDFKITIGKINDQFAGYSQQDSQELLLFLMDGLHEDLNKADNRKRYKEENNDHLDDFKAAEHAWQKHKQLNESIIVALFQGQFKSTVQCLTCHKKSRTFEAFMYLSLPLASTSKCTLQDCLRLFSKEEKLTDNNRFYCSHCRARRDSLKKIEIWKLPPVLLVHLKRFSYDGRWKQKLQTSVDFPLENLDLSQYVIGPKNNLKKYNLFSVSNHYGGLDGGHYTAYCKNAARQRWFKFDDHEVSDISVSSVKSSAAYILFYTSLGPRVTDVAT

[2] = molecular target: T3, Ubiquitin carboxy-terminal hydrolase L1 (Homo sapiens, UniProt P09936); assay: biochemical; settings: read-out: Percentage inhibition (%)
T3 sequence (P09936 1-223): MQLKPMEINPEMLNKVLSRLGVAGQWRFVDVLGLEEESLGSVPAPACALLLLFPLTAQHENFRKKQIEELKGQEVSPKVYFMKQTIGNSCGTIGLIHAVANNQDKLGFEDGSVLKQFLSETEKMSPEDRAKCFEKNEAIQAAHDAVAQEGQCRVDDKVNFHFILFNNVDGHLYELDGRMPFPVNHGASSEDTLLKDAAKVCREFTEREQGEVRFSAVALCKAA

DPP3 = DPP3 (Homo sapiens, UniProt Q9NY33); assay: biochemical; settings: read-out: Percentage inhibition (%)
in vivo = settings: mouse, iv; for clearance: in vivo; for AUC(0-inf) / C0 / half-life / Vd: plasma; for Vd: mouse plasma

Caspase-9, sequence (P55211 1-315 limits assumed, species assumed): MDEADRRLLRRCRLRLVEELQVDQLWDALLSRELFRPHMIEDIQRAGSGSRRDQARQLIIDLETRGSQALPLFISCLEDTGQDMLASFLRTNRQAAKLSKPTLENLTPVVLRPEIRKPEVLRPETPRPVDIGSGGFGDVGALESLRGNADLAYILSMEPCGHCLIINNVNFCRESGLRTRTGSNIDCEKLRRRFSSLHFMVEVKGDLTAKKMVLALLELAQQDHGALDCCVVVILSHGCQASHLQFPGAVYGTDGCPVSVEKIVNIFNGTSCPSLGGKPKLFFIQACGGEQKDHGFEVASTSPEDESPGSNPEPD
Caspase-9, sequence (P55211 331-416 limits assumed, species assumed): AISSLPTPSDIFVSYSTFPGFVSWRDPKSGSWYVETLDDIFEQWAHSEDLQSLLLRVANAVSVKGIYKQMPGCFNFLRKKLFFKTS
DPP3, sequence (Q9NY33 whole entry, species assumed): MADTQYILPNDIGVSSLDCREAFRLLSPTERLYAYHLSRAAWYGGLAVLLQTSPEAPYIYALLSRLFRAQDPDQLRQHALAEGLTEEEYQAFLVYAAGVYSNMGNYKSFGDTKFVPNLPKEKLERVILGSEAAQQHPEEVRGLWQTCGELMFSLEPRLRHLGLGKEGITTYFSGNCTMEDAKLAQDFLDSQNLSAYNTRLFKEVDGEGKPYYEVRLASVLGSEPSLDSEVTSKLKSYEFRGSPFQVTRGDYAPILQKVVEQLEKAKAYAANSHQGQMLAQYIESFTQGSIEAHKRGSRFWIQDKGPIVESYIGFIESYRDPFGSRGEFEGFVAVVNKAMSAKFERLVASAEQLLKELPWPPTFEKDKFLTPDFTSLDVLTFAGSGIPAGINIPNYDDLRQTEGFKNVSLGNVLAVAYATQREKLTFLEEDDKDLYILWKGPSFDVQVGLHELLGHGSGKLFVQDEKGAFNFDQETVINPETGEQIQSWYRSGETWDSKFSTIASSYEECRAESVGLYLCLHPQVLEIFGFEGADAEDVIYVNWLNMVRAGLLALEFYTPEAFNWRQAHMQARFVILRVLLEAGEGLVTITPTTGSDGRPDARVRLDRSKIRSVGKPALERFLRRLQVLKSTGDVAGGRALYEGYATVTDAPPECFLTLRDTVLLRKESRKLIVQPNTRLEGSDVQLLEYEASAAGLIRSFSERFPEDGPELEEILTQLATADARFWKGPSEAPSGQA

What does the source list for CCCCCC(=O)N[C@H]1CSCc2cc(cc(CN3CCN(C(=O)CN4CCN(CC(=O)O)CCN(CC(=O)O)CCN(CC(=O)O)CC4)CC3)c2)CSC[C@@H](C(=O)N[C@@H](CC(=O)O)C(N)=O)NC(=O)[C@H](Cc2ccccc2)NC(=O)[C@H](CCC(N)=O)NC(=O)[C@H]([C@@H](C)O)NC(=O)[C@@H]2CCCN2C(=O)[C@@H]2CCCN2C1=O [Compound 3BP-3407, Hex-[Cys(tMeBn(DOTA-PP))-Pro-Pro-Thr-Gln-Phe-Cys]-Asp-NH2] (Hexanoyl-CPPTQFCD-NH2; linker 1-7 via X1)?
inhibition at 1 µM (Caspase-9): 5%; inhibition at 10 µM (Caspase-9): 8%; inhibition at 1 µM (Caspase-3): 1%; inhibition at 10 µM (Caspase-3): -2%; inhibition at 1 µM [1]: -3%; inhibition at 10 µM [1]: 6%; inhibition at 1 µM [2]: -2%; inhibition at 10 µM [2]: 4%

With CCCCCC(=O)N[C@H]1CSCc2cc(CSCCNC(=O)CN3CCN(CC(=O)O)CCN(CC(=O)O)CCN(CC(=O)O)CC3)cc(c2)CSC[C@@H](C(=O)O)NC(=O)[C@H](Cc2ccccc2)NC(=O)[C@H](CCC(N)=O)NC(=O)[C@H]([C@@H](C)O)NC(=O)[C@@H]2CCCN2C(=O)[C@@H]2CCCN2C1=O [Compound 3BP-3554, Hex-[Cys(tMeBn(DOTA-AET))-Pro-Pro-Thr-Gln-Phe-Cys]-OH] as the compound, how does the inhibition at 1 µM (Caspase-9) read?
Its inhibition at 1 µM is -1%.

And the inhibition at 10 µM (Caspase-9)?
Its inhibition at 10 µM is -2%.

What about the inhibition at 1 µM (Caspase-3) of the same compound?
The inhibition at 1 µM was -2%.

And the inhibition at 10 µM (Caspase-3)?
Its inhibition at 10 µM is -1%.

And the inhibition at 1 µM (DPP3)?
The inhibition at 1 µM was 2%.

And the inhibition at 10 µM (DPP3)?
The inhibition at 10 µM was -1%.

What about the inhibition at 1 µM [1] of the same compound?
The inhibition at 1 µM was 2%.

What about the inhibition at 10 µM [1] of the same compound?
Its inhibition at 10 µM is 1%.

What about the inhibition at 1 µM [2] of the same compound?
Its inhibition at 1 µM is -4%.

What about the inhibition at 10 µM [2] of the same compound?
Its inhibition at 10 µM is 4%.

What about the clearance (in vivo; 4 nmol/kg) of the same compound?
Its clearance is 8.03 mL/min/kg.

And the clearance (in vivo; 40 nmol/kg)?
Its clearance is 11.8 mL/min/kg.

And the clearance (in vivo; 400 nmol/kg)?
Its clearance is 8.03 mL/min/kg.

And the AUC(0-inf) (in vivo; 4 nmol/kg)?
The AUC(0-inf) was 0.0083 µM·h.

And the C0 (in vivo; 4 nmol/kg)?
Its C0 is 25.6 nM.

What about the half-life (in vivo; 4 nmol/kg) of the same compound?
The half-life was 23 min.

And the Vd (in vivo; 4 nmol/kg, Vss, intravenous 4 nmol/kg)?
The Vd was 0.21 L/kg.

And the Vd (in vivo; 4 nmol/kg, Vz, intravenous 4 nmol/kg)?
Its Vd is 0.26 L/kg.

And the AUC(0-inf) (in vivo; 40 nmol/kg)?
The AUC(0-inf) was 0.056 µM·h.

What about the C0 (in vivo; 40 nmol/kg) of the same compound?
The C0 was 177 nM.

And the half-life (in vivo; 40 nmol/kg)?
The half-life was 59 min.

And the Vd (in vivo; 40 nmol/kg, Vss, intravenous 40 nmol/kg)?
Its Vd is 0.32 L/kg.

And the Vd (in vivo; 40 nmol/kg, Vz, intravenous 40 nmol/kg)?
Its Vd is 1.02 L/kg.

And the AUC(0-inf) (in vivo; 400 nmol/kg)?
Its AUC(0-inf) is 0.961 µM·h.

What about the C0 (in vivo; 400 nmol/kg) of the same compound?
The C0 was 4970 nM.

And the half-life (in vivo; 400 nmol/kg)?
Its half-life is 40 min.

What about the Vd (in vivo; 400 nmol/kg, Vss, intravenous 400 nmol/kg) of the same compound?
The Vd was 0.1 L/kg.

And the Vd (in vivo; 400 nmol/kg, Vz, intravenous 400 nmol/kg)?
Its Vd is 0.21 L/kg.
